Like-named read-outs stand apart in the source and are kept apart here.
Tests used:
C. elegans L3 larvae = C. elegans L3 larvae abnormal locomotory behaviour on solid agar; conditions: solid agar MYOB + E. coli OP50, mean of 4 replicates; for % C. elegans L3 larvae any phene 1 h (conc.): 1 h exposure; for % C. elegans L3 larvae any phene 6 h (conc.): 6 h exposure; for % C. elegans L3 larvae any phene 24 h (conc.): 24 h exposure
Description: 20 animals were scored after either 1, 6 or 24 hours of exposure to drug (as indicated) per replicate. […] Data are reported as the mean % of animals with abnormal phenotype over 4 independent replicates.

[1] = tested on: Danio rerio (zebrafish) embryos; assay: Danio rerio (zebrafish) embryo abnormal developmental phenotype; type: in vivo
[2] = tested on: Pristionchus pacificus young adult animals; assay: Pristionchus pacificus young adult abnormal locomotory behaviour on solid agar; type: in vivo; conditions: read-out: P. pacificus, young adult 1 h any phene at 1 h (EC50 (μM))
[3] = tested on: D. immitis larval stage 3 (L3) worms; assay: D. immitis L3 development assay; type: in vivo; conditions: 72 h, read-out: D. immitis L3 development EC50 (μM)
Strongyloides ratti L3 = type: in vivo; conditions: 72 h incubation, 1 replicate
[4] = tested on: Heligmosomoides polygyrus larval stage 3 (L3) worms; type: in vivo; conditions: 72 h incubation, one replicate
[5] = read-out: D. rerio (zebrafish) any phenotype EC50 (μM)
[6] = 1 day post fertilization embryos through 48 h of development, tested at 15 and 3.75 μM, select compounds at 60 and 30 μM, read-out: D. rerio (zebrafish) any phenotype EC50
[7] = 1 h exposure, tested at 3.75, 15 and 60 μM, NA = not active, no phenotype at 60 μM

SMILES	% C. elegans L3 larvae any phene 1 h (conc.) (C. elegans L3 larvae; 3.75 uM) [%]	% C. elegans L3 larvae any phene 6 h (conc.) (C. elegans L3 larvae; 3.75 uM) [%]	% C. elegans L3 larvae any phene 24 h (conc.) (C. elegans L3 larvae; 3.75 uM) [%]	% C. elegans L3 larvae any phene 1 h (conc.) (C. elegans L3 larvae; 15 uM) [%]	% C. elegans L3 larvae any phene 6 h (conc.) (C. elegans L3 larvae; 15 uM) [%]	% C. elegans L3 larvae any phene 24 h (conc.) (C. elegans L3 larvae; 15 uM) [%]	% C. elegans L3 larvae any phene 1 h (conc.) (C. elegans L3 larvae; 60 uM) [%]	% C. elegans L3 larvae any phene 6 h (conc.) (C. elegans L3 larvae; 60 uM) [%]	% C. elegans L3 larvae any phene 24 h (conc.) (C. elegans L3 larvae; 60 uM) [%]	EC50 [1, 5] [µM]	EC50 ([2]; 1 h) [µM]	EC50 [1, 6] [µM]	EC50 [2, 7] [µM]	EC50 [3] [µM]	S. ratti L3 % lethality 25 μM (Strongyloides ratti L3) [%]	H. Polygyrus % lethality L3 25 μM [4] [%]
CCN1CCN(CC2CCCCC2)CC1 [I-a]	3.3	0.0	0.0	6.7	0.0	0.0	19.2	5.8	0.0	> 15	> 60					
O=[N+]([O-])c1cccc(CN2CCN(C3CCCCC3)CC2)c1 [II-a]	0.8	0.0	0.0	0.0	0.0	0.0	6.7	2.5	0.0		> 60					
O=[N+]([O-])c1ccc(CN2CCN(C3CCCC3)CC2)cc1 [II-b]	0.0	0.8	0.0	2.5	0.0	0.0	23.3	29.2	0.0		> 60					
O=C(C1CCCCC1)N1CCN(c2ccc([N+](=O)[O-])cc2)CC1 [III-a]	0.8	0.8	0.0	0.8	5.8	0.0	4.2	24.2	0.0			> 15	> 60	> 50		
O=C(C1CCCC1)N1CCN(c2ccc([N+](=O)[O-])cc2)CC1 [III-b]	0.0	0.0	0.0	0.0	0.0	0.0	9.2	8.3	0.0			7.8	> 60			
O=C(C1CCC1)N1CCN(c2ccc(F)cc2)CC1 [III-c]	0.0	0.0	0.0	10.0	0.0	0.0	27.5	15.0	0.0			> 15	> 60			
O=C(c1ccc([N+](=O)[O-])cc1)N1CCN(C2CCCC2)CC1 [III-d]	0.8	0.0	0.0	14.2	1.7	0.0	30.8	17.5	0.0			> 15	> 60			
c1cc(N2CCN(CC3CCCCC3)CC2)ccn1 [IV-a]	0.0	0.0	0.0	10.8	0.0	0.0	24.2	12.5	0.0	> 15						
c1cc(N2CCN(CC3CCC3)CC2)ccn1 [IV-b]	4.2	0.0	0.0	21.7	0.8	0.0	30.0	4.2	1.7	> 15						
Cc1cc([N+](=O)[O-])ccc1N1CCN(CC2CCCCC2)CC1 [V-a]	15.8	0.0	0.0	33.3	15.8	0.0	63.3	27.5	0.0	5.1	> 60			15		
CC1CCC(N2CCN(c3cccc(Cl)c3)CC2)C1 (centres unmarked) [VI-d]	80.0	11.7	0.0	100.0	59.2	0.0	100.0	100.0	66.7	15	2.5				17.9	56.5
FC(F)(F)c1cccc(N2CCN(CC3CC4C=CC3C4)CC2)c1 (centres unmarked) [VI-f]	34.2	0.0	0.0	81.7	83.2	52.5	100.0	100.0	92.5	7.8	2.8				0	0
FC(F)(F)c1cccc(N2CCN(CC3CCCCC3)CC2)c1 [VI-g]	9.2	0.0	0.0	65.0	21.7	0.0	94.2	54.2	1.7	29.3					0	11.6
FC(F)(F)c1cccc(N2CCN(C3CCCCCC3)CC2)c1 [VI-h]	64.2	0.0	0.0	100.0	37.5	25.0	100.0	100.0	62.5	7.8					0	0
FC(F)(F)c1cccc(N2CCN(C3CCCCCCC3)CC2)c1 [VI-i]	26.7	0.0	0.0	70.0	0.0	0.0	96.7	58.3	5.0	4	49.6			> 50	0	11.2
Fc1ccccc1N1CCN(C2CCCCCC2)CC1 [VI-j]	25.8	0.8	0.0	69.2	12.5	0.0	100.0	41.7	9.2	21.1	41.5				66.7	35.4

Reference: patent US20230339874A1, “PIPERAZINYL COMPOUNDS AND METHODS FOR TREATING NEMATODE INFECTIONS” (The Governing Council of the University of Toronto, priority 2020, published 2023)
